In patent US8916565B2, “Pyrrolopyrazine-spirocyclic piperidine amides as modulators of ion channels” (priority 2011, dated 2014):

Each compound was assayed against human NaV subtype, like NaV 1.7 (Homo sapiens, UniProt Q15858) (assay: E-VIPR optical membrane potential assay with electrical stimulation). Details: active against one or more sodium channels; Table 3 does not name the assay or NaV subtype; read-out: Binned Activity Data (IC50).
Assay type: cell-based

human NaV subtype, like NaV 1.7, sequence (Q15858 whole entry): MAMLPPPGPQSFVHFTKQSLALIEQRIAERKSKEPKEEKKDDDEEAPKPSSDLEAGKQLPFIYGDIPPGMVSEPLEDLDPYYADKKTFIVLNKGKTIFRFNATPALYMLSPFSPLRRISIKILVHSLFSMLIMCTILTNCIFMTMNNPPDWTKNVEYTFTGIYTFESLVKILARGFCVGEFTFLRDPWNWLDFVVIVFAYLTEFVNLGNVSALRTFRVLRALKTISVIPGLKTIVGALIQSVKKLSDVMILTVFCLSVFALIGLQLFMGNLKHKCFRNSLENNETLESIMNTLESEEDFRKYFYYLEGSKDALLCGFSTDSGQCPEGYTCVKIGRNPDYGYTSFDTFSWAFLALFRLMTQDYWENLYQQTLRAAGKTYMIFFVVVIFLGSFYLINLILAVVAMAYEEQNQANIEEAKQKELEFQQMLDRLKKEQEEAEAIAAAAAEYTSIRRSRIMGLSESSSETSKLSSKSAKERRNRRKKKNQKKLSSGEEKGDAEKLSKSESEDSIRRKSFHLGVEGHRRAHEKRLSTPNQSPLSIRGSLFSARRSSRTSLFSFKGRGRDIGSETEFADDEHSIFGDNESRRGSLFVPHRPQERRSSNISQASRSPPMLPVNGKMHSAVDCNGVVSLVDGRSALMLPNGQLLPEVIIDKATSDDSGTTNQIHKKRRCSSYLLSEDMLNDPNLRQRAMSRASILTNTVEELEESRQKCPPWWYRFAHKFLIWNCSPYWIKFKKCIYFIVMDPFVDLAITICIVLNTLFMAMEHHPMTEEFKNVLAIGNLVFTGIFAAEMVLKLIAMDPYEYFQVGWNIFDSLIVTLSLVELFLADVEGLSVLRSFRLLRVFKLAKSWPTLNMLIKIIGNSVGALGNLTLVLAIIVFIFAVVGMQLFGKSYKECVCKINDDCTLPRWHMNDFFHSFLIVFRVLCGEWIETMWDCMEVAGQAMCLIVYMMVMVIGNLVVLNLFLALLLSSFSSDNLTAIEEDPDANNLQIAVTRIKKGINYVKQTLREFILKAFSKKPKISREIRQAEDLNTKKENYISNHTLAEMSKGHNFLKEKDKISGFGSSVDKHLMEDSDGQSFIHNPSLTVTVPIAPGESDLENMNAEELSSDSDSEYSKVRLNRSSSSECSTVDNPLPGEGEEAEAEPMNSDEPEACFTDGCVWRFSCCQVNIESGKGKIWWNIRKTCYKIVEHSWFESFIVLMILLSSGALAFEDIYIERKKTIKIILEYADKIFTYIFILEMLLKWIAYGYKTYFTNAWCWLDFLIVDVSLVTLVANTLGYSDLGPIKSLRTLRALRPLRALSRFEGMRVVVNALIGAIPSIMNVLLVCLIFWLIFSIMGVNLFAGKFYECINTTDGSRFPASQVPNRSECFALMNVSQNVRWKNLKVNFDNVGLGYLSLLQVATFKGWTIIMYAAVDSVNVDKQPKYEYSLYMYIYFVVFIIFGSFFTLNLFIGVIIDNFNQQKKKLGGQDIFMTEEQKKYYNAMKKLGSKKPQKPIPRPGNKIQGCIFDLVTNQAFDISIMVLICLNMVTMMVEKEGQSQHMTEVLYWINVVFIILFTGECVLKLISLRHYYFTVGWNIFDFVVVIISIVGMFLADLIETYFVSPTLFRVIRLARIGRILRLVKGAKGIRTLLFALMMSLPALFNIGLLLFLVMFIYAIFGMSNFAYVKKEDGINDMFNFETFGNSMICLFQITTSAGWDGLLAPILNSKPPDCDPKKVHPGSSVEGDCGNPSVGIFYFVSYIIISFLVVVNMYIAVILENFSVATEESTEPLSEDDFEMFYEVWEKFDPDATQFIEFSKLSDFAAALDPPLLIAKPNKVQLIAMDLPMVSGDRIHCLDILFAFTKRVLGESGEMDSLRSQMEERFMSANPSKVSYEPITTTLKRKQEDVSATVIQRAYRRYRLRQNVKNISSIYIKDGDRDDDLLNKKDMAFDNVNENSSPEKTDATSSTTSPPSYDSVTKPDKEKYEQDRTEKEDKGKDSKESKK

**Q.** With `Cc1cc(C(F)F)n2ncc(C(=O)N3CCC4(CC3)c3ccc(C(F)(F)F)n3CCN4C)c2n1` [Compound 371] as the compound, how does the IC50 read?
**A.** ≤ 2000 nM

**Q.** Which IC50 does the source give for `CC1CCN(S(=O)(=O)c2ccc(C(=O)N3CCC4(CC3)c3ccc(C(=O)C(F)(F)F)n3CCN4C)cc2)CC1` [Compound 600] here?
**A.** ≤ 2000 nM

**Q.** Which IC50 does the source give for `CCN1CCn2c(C(F)(F)F)ccc2C12CCN(C(=O)c1ccc(OC(C)C)c(OC)c1)CC2` [Compound 167] here?
**A.** ≤ 2000 nM

**Q.** How did the IC50 turn out when `CN1CCn2c(Cl)ccc2C12CCN(C(=O)c1ccc(Oc3ccccc3)cc1)CC2` [Compound 406] was run?
**A.** 2000 to 5000 nM

**Q.** For `CC[C@@H](C)Oc1ccc(C(=O)N2CCC3(CC2)c2ccc(C(C)=O)n2CCN3C)cc1OC` [Compound 572], which IC50 is on record?
**A.** ≤ 2000 nM

**Q.** How did the IC50 turn out when `CN1CCn2c(C(=O)C(C)(C)C)ccc2C12CCN(C(=O)c1ccc(S(=O)(=O)C(F)(F)F)cc1)CC2` [Compound 93] was run?
**A.** ≤ 2000 nM

**Q.** How did the IC50 turn out when `CN1CCn2c(C(F)(F)F)ccc2C12CCN(C(=O)c1ccc(Oc3ccccc3)cc1)CC2` [Compound 155] was run?
**A.** > 5000 nM

**Q.** `CN1CCn2c(C(=O)C(C)(C)C)ccc2C12CCN(C(=O)c1ccc(S(=O)(=O)C(C)(C)C)cc1)CC2` [Compound 680] was tested. Which IC50 did it give?
**A.** ≤ 2000 nM

**Q.** How did the IC50 turn out when `CCOC(=O)N1CCn2c(C#N)ccc2C12CCN(C(=O)c1ccc(OC(C)C)c(C)c1)CC2` [Compound 210] was run?
**A.** 2000 to 5000 nM

**Q.** With `COc1ccc(C(=O)N2CCC3(CC2)c2ccc(C(=O)C(F)(F)F)n2C[C@@H](C)N3C)cc1Cl` [Compound 252] as the compound, how does the IC50 read?
**A.** > 5000 nM

**Q.** How did the IC50 turn out when `O=C(c1ccc(S(=O)(=O)NC2CC2)cc1)N1CCC2(CC1)c1ccc(C(F)(F)F)n1CCN2C1CCC1` [Compound 145] was run?
**A.** > 5000 nM

**Q.** Which IC50 does the source give for `CC(=O)c1ccc2n1CCN(C)C21CCN(C(=O)c2ccc(-c3ccccc3)c(C)c2)CC1` [Compound 304] here?
**A.** ≤ 2000 nM

**Q.** With `CN1CCn2c(C(F)(F)F)ccc2C12CCN(C(=O)c1cccnc1N1CCC(F)(F)C1)CC2` [Compound 392] as the compound, how does the IC50 read?
**A.** 2000 to 5000 nM

**Q.** For `Cc1cc(C(=O)N2CCC3(CC2)c2ccc(C(=O)C(F)(F)F)n2C[C@H](C)N3C)ccc1O` [Compound 207], which IC50 is on record?
**A.** ≤ 2000 nM

**Q.** For `Cc1nc(C(=O)N2CCC3(CC2)c2ccc(C(F)(F)F)n2CCN3C)ccc1OC(C)C` [Compound 200], which IC50 is on record?
**A.** ≤ 2000 nM

**Q.** How did the IC50 turn out when `COc1ccc(C(=O)N2CCC3(CC2)c2ccc(C(=O)C(F)(F)F)n2CCN3C)cc1-c1ccccc1` [Compound 130] was run?
**A.** 2000 to 5000 nM

**Q.** For `COc1ccc(C(=O)N2CCC3(CC2)c2cc(C(=O)C(F)(F)F)cn2C(C)(C)CN3C)c(F)c1` [Compound 565], which IC50 is on record?
**A.** 2000 to 5000 nM

**Q.** `Cc1cc(C(=O)N2CCC3(CC2)NC(C)(C)Cn2c(C(F)(F)F)ccc23)ccc1OC(C)C` [Compound 598] was tested. Which IC50 did it give?
**A.** ≤ 2000 nM

**Q.** Which IC50 does the source give for `Cc1cc(C(=O)N2CCC3(CC2)c2c(Cl)cc(C(F)(F)F)n2CCN3C)ccc1C(C)(C)O` [Compound 466] here?
**A.** ≤ 2000 nM

**Q.** Which IC50 does the source give for `COc1ncccc1-c1ccc(C(=O)N2CCC3(CC2)c2ccc(C(=O)C(F)(F)F)n2CCN3C)cc1C` [Compound 514] here?
**A.** > 5000 nM

**Q.** How did the IC50 turn out when `C[C@H]1Cn2c(C(=O)C(F)(F)F)ccc2C2(CCN(C(=O)c3ccc(S(=O)(=O)C(F)(F)F)cc3)CC2)N1C` [Compound 649] was run?
**A.** ≤ 2000 nM

**Q.** How did the IC50 turn out when `COc1cc(C(=O)N2CC[C@]3(c4ccc(C(F)(F)F)n4CCN3C)[C@H](F)C2)ccc1OC(C)C` [Compound 3] was run?
**A.** > 5000 nM

**Q.** For `Cc1cc(C(=O)N2CCC3(CC2)c2ccc(C(F)(F)F)n2CCN3CC#N)ccc1OC(C)C` [Compound 165], which IC50 is on record?
**A.** ≤ 2000 nM

**Q.** How did the IC50 turn out when `CCOc1ccc(C(=O)N2CCC3(CC2)c2ccc(C(=O)C(F)(F)F)n2CCN3C)cc1C(F)(F)F` [Compound 64] was run?
**A.** ≤ 2000 nM

**Q.** Which IC50 does the source give for `CC(=O)c1ccc2n1CCN(C)C21CCN(C(=O)c2ccc(OC(C)C)c(C(F)(F)F)c2)CC1` [Compound 732] here?
**A.** ≤ 2000 nM

**Q.** For `COc1ccc(C(=O)N2CCC3(CC2)c2ccc(C(=O)C4CC4)n2CCN3C)cc1C` [Compound 521], which IC50 is on record?
**A.** ≤ 2000 nM

**Q.** With `CC(C)CCOc1ccc(C(=O)N2CCC3(CC2)c2ccc(C(=O)C(C)(C)C)n2CCN3C)cc1` [Compound 661] as the compound, how does the IC50 read?
**A.** ≤ 2000 nM

**Q.** How did the IC50 turn out when `CC(=O)c1ccc2n1CCN(C)C21CCN(C(=O)c2ccc(OC(F)(F)F)cc2)CC1` [Compound 577] was run?
**A.** > 5000 nM

**Q.** `CC(=O)c1ccc2n1CCN(C)C21CCN(C(=O)c2ccc(OC(C)C)cc2F)CC1` [Compound 125] was tested. Which IC50 did it give?
**A.** 2000 to 5000 nM

**Q.** With `CN1CCn2c(C(F)(F)F)cc(F)c2C12CCN(C(=O)c1ccc(C(C)(C)O)cc1)CC2` [Compound 193] as the compound, how does the IC50 read?
**A.** ≤ 2000 nM

**Q.** Which IC50 does the source give for `Cc1nc(C(=O)N2CCC3(CC2)c2cc(C(=O)C(F)(F)F)cn2C(C)(C)CN3C)ccc1OC(C)C` [Compound 178] here?
**A.** > 5000 nM

**Q.** For `Cc1cc(C(=O)N2CCC3(CC2)c2ccc(C(=O)C(F)(F)F)n2CCN3C)cnc1OC(C)C` [Compound 291], which IC50 is on record?
**A.** ≤ 2000 nM

**Q.** `CC(C)Oc1ccc(C(=O)N2CCC3(CC2)c2cc(C(=O)C(F)(F)F)cn2C(C)(C)CN3C)cc1Cl` [Compound 588] was tested. Which IC50 did it give?
**A.** > 5000 nM

**Q.** How did the IC50 turn out when `COc1cc(C(=O)N2CCC3(CC2)c2ccc(Cl)n2CCN3C)ccc1C(C)(C)C` [Compound 209] was run?
**A.** ≤ 2000 nM

**Q.** `CC(=O)c1ccc2n1CCN(C)C21CCN(C(=O)c2ccc(S(=O)(=O)C(F)F)cc2)CC1` [Compound 268] was tested. Which IC50 did it give?
**A.** > 5000 nM

**Q.** With `CC[C@H](C)Oc1ccc(C(=O)N2CCC3(CC2)NCCn2c(C(F)(F)F)ccc23)cc1OC` [Compound 522] as the compound, how does the IC50 read?
**A.** ≤ 2000 nM

**Q.** How did the IC50 turn out when `CN1CCn2c(Cl)ccc2C12CCN(C(=O)c1ccc(C3(O)CCCC3)cc1)CC2` [Compound 301] was run?
**A.** > 5000 nM

**Q.** How did the IC50 turn out when `COc1cc(C(=O)N2CCC3(CC2)NCCn2c(C(F)(F)F)ccc23)ccc1OC(C)C` [Compound 372] was run?
**A.** ≤ 2000 nM

**Q.** Which IC50 does the source give for `CN1CCn2c(C(=O)C(F)(F)F)ccc2C12CCN(C(=O)c1ccc(Cl)c(O)c1)CC2` [Compound 271] here?
**A.** > 5000 nM

**Q.** How did the IC50 turn out when `COc1ccc(C(=O)N2CCC3(CC2)c2ccc(C(=O)C(F)(F)F)n2C[C@H](C)N3C)cc1C` [Compound 14] was run?
**A.** ≤ 2000 nM

**Q.** For `CN1CCn2c(C(=O)C(C)(C)C)ccc2C12CCN(C(=O)c1ccc(O)c(Cl)c1)CC2` [Compound 641], which IC50 is on record?
**A.** ≤ 2000 nM

**Q.** With `COc1cc(C(=O)N2CC[C@]3(c4ccc(C(F)(F)F)n4CCN3C)[C@H](F)C2)ccc1OC(C)C` [Compound 105] as the compound, how does the IC50 read?
**A.** ≤ 2000 nM

**Q.** How did the IC50 turn out when `COc1cc(C(=O)N2CCC3(CC2)c2ccc(C(=O)C(F)(F)F)n2CCN3C)ccc1COCC(F)(F)F` [Compound 17] was run?
**A.** ≤ 2000 nM

**Q.** Which IC50 does the source give for `COCCOc1ccc(C(=O)N2CCC3(CC2)c2c(F)cc(C(F)(F)F)n2CCN3C)cc1` [Compound 736] here?
**A.** ≤ 2000 nM

**Q.** With `CN1CCn2c(ccc2C(F)(F)C(F)(F)F)C12CCN(C(=O)c1ccc(S(=O)(=O)C(C)(C)C)cc1)CC2` [Compound 464] as the compound, how does the IC50 read?
**A.** ≤ 2000 nM

**Q.** Which IC50 does the source give for `CC1(C)Cn2c(C(=O)C(F)(F)F)ccc2C2(CCN(C(=O)c3ccc(-c4ccccc4)c(O)c3)CC2)N1` [Compound 218] here?
**A.** > 5000 nM

**Q.** With `CC(C)Oc1ccc(C(=O)N2CCC3(CC2)c2ccc(C(=O)C4CC4)n2CCN3C)c(F)c1` [Compound 124] as the compound, how does the IC50 read?
**A.** ≤ 2000 nM

**Q.** With `CC(C)Oc1ccc(C(=O)N2CCC3(CC2)c2c(F)cc(C(F)(F)F)n2CCN3C)cn1` [Compound 431] as the compound, how does the IC50 read?
**A.** 2000 to 5000 nM

**Q.** `Cc1cc(C(=O)N2CCC3(CC2)N[C@H](C)Cn2c(C(F)(F)F)ccc23)ccc1OC(C)C` [Compound 308] was tested. Which IC50 did it give?
**A.** ≤ 2000 nM

**Q.** `CC(C)Oc1ccc(C(=O)N2CCC3(CC2)NCCn2c(C(F)(F)F)ccc23)cc1F` [Compound 477] was tested. Which IC50 did it give?
**A.** ≤ 2000 nM

**Q.** Which IC50 does the source give for `COc1cc(C(=O)N2CCC3(CC2)c2c(F)cc(C(F)(F)F)n2CCN3C)ccc1OC(C)C` [Compound 118] here?
**A.** ≤ 2000 nM

**Q.** Which IC50 does the source give for `COc1cc(C(=O)N2CC[C@@]3(c4ccc(C(F)(F)F)n4CCN3C)[C@H](F)C2)ccc1OC(C)C` [Compound 327] here?
**A.** ≤ 2000 nM
